In US20230364025A1, “PROTEIN-RELEASE SYSTEM FOR SUSTAINED RELEASE OF PROTEINS” (THE GOVERNING COUNCIL OF THE UNIVERSITY OF TORONTO, priority 2022, published 2023):

Experiments:
[1] = In vitro controlled release of proteins from HAKT-oxime gels, quantified by ELISA; format: physicochemical; conditions: for cumulative release: after 2 days
Method: HAKT and HAKT-FcL-1 were dissolved in PBS to yield a final HA content of 12.5 mg/mL with 0 or 100 molar excesses of peptide to protein and mixed with PEGOA4 at 80 mol %. […] Release media was defined as 1×PBS comprising 0.1 wt % bovine serum albumin and Roche cOmplete™ Protease Inhibitor Cocktail (1 tablet/ 10 mL, Roche, Switzerland). Protein release was evaluated by incubating HAKT-oxime gels with 400 μL of release media on an orbital shaker at 37° C. Supernatants were collected and replaced with fresh release media after 2 h, 6 h, 1 d, 2 d, 3 d, 5 d, and 7 d. HAKT-oxime hydrogels were digested after the last time point using 500 IU/mL hyaluronidase in 400 μL of PBS. Fc-Noggin concentrations were evaluated using a mouse Noggin ELISA (RayBiotech).
Subsequently, the wells were washed with 200 μL TPBS (1× PBS with 0.05% Tween 20) four times and blotted dry on paper towels. Standard and analyte samples were added to each well (100 μL) and incubated for 2.5 h at room temperature on an orbital shaker. The wells were then washed as previously described and blotted dry. […] 100 μL of anti-Fc antibody diluted at appropriate concentrations was added to each well and incubated for 1.5 h at room temperature. A solution of 3,3′,5,5′-Tetramethylbenzidine (TMB) was added (100 ul) to each well. […] Then, a stop solution comprising 2N H2SO4 (50 μL) was added to each well and the absorbance was measured at 450 nm. Protein concentration was determined using the linear range in the standard curve. Protein samples were diluted to fit within the linear range.

bevacizumab = experiment: Bio-layer interferometry binding of immobilized Fc-ligands to bevacizumab; conditions: biotinylated peptide immobilized at 100 nM on SAX biosensors
Method: (§1) Binding kinetic measurements were performed on the Octet RED96 system (ForteBio, CA) using single-use high-precision streptavidin biosensors (SAX). Assay buffer was defined as 1×PBS comprising 0.05% Tween-20 (PBST). Biotinylated peptides FcL-1 and FcL-2 were immobilized at 100 nM. Non-specific interactions were minimized by including a blocking step using SuperBlock prior to each baseline response. […] A double-referencing experiment was used to assess the binding interactions of Fc-noggin to both peptides. Peptides were immobilized in sample sensors while reference sensors were dipped in assay buffer. For association, the sample and reference sensors were dipped into Fc-noggin. All experiments included one biosensor dipped in assay buffer during association for background normalization.
(§2) Affinity interactions of the modified peptide ligands to different antibodies were evaluated via bio-layer interferometry. […] Dissociation constants between the binding pairs were determined using the Octet Data Analysis Software. […] A heterogeneous 2:1 ligand binding model was used for the evaluation of the equilibrium dissociation constants of the chosen peptide ligands to anti-sFRP2 or Fc-Noggin.

anti-sFRP2 = experiment: Bio-layer interferometry binding of immobilized Fc-ligands to anti-sFRP2; conditions: biotinylated peptide immobilized at 100 nM on SAX biosensors
Method: as §1, §2

panitumumab = experiment: Bio-layer interferometry binding of immobilized Fc-ligands to panitumumab; conditions: biotinylated peptide immobilized at 100 nM on SAX biosensors
Method: as §1, §2

Fc-Noggin = molecular target: T1, Fc-Noggin (Mus musculus, UniProt P97466); experiment: Bio-layer interferometry binding of immobilized Fc-ligands to Fc-Noggin; conditions: biotinylated peptide immobilized at 100 nM on SAX biosensors
T1 construct: Fc (immunoglobulin Fc region); purchased R&D systems
Method: as §1, §2

hlgG1 = hlgG1 (Homo sapiens, UniProt P01857); conditions: interacting with hlgG1; Reese et al., 2020; cited from earlier work
Chain of hlgG1 (P01857 1-328 limits assumed): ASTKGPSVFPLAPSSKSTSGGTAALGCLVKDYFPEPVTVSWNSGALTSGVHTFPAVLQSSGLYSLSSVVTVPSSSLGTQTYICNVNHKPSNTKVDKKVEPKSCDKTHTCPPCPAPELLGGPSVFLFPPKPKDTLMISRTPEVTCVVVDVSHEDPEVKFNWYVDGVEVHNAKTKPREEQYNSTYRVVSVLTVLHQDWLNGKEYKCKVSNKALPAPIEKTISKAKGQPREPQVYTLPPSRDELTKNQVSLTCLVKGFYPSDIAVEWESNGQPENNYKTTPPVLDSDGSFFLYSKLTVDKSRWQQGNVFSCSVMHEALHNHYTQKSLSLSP

T1 sequence (P97466 with tags, fused parts or gaps): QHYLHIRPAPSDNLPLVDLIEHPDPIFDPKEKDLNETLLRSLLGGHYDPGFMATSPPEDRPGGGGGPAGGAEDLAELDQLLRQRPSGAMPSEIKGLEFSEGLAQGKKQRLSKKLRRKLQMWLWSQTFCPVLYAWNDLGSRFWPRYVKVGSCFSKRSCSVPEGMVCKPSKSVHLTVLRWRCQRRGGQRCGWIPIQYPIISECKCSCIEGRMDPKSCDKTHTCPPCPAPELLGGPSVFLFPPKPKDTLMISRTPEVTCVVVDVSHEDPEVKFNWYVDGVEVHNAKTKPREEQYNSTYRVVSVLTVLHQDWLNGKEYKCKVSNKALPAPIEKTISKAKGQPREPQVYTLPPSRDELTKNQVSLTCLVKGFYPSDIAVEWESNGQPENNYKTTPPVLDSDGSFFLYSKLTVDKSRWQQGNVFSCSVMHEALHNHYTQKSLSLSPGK

| binding to bevacizumab (bevacizumab) | binding to anti-sFRP2 (anti-sFRP2) | binding to panitumumab (panitumumab) | binding to Fc-Noggin (Fc-Noggin) | Compound | controlled release from HAKT-gel ([1]; FcL-1 at 100-fold molar excess vs no peptide, 37° C., 7 days) | cumulative release ([1]; from HAKT-FcL1-oxime) [%] | cumulative release ([1]; from HAKT-oxime (no peptide)) | Kd (hlgG1) [µM] |
| --- | --- | --- | --- | --- | --- | --- | --- | --- |
|  |  |  |  | bevacizumab: antibody against VEGF; Research Grade Bevacizumab Biosimilar | confirmed controlled release | 60 | approximately 100% |  |
| shown to bind | shown to bind | shown to bind | shown to bind | CC(C)[C@H](NC(=O)[C@H](Cc1c[nH]c2ccccc12)NC(=O)CNC(=O)[C@H](CCCNC(=N)N)NC(=O)[C@H](Cc1c[nH]c2ccccc12)NC(=O)[C@@H](N)Cc1c[nH]cn1)C(=O)NCC(=O)N[C@@H](C)C(=O)N[C@@H](CCCCNC(=O)CCCC[C@@H]1SC[C@@H]2NC(=O)N[C@@H]21)C(=O)N[C@@H](CO)C(=O)N[C@@H](CCCCN)C(=O)NCC(=O)O [FcL1] |  |  |  |  |
| demonstrated binding only to anti-sFRP2 | demonstrated binding only to anti-sFRP2 | demonstrated binding only to anti-sFRP2 | demonstrated binding only to anti-sFRP2 | (CFHH)2KGAKSKG [FcL2] |  |  |  |  |
|  |  |  |  | HWRWGV |  |  |  | 14.2 |
